Results: patent US20260042764A1, “COMPOSITIONS AND METHODS FOR INHIBITION OF KRAS” (TheRas, Inc., priority 2022, published 2026)

Legend:
[1] = target: T1, Avi-KRAS G12R (1-169) GppNHp/RAF1 RBD-3xFLAG (52-151) (Homo sapiens, UniProt P01116, G12R); test: Raf1-KRAS G12R-GppNHP disruption HTRF assay (Biological Example 1); format: binding; conditions: KRAS G12R, GppNHp-loaded; Table 11
T1 construct: Avi-KRAS G12R (1-169)
Method in brief: (§1)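 Percent activity versus DMSO (100%) was derived from HTRF signal after KRAS–RAF1 RBD protein mix was incubated 1 h at room temperature with shaking and detection reagents were added for a further 1 h.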

[2] = target: T2, Avi-KRAS G12V (1-169) GppNHp/RAF1 RBD-3xFLAG (52-151) (Homo sapiens, UniProt P01116, G12V); test: Raf1-KRAS G12V-GppNHP disruption HTRF assay (Biological Example 1); format: binding; conditions: KRAS G12V, GppNHp-loaded; Table 11
T2 construct: Avi-KRAS G12V (1-169)
Method in brief: as §1

[3] = test system: GP2d cells (KRAS G12D); test: Cell-based pERK HTRF assay in GP2d cell (Biological Example 2); conditions: GP2d (KRAS G12D) cells, pERK HTRF
Method in brief: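 Phospho-ERK is measured by HTRF following a 60 min compound exposure at 0.25% DMSO, with a 9-point half-log curve topping at 1 μM or 100 nM.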

[4] = target: T3, Avi-KRAS G12D (1-169) GppNHp/RAF1 RBD-3xFLAG (52-151) (Homo sapiens, UniProt P01116, G12D); test: Raf1-KRAS G12D-GppNHP disruption HTRF assay (Biological Example 1); format: binding; conditions: KRAS G12D, GppNHp-loaded; Table 11
T3 construct: Avi-KRAS G12D (1-169)
Method in brief: as §1

[5] = target: T4, Avi-KRAS WT (1-169) GppNHp/RAF1 RBD-3xFLAG (52-151) (Homo sapiens, UniProt P01116); test: Raf1-KRAS WT-GppNHP disruption HTRF assay (Biological Example 1); format: binding; conditions: KRAS WT, GppNHp-loaded; Table 11
T4 construct: Avi-KRAS WT (1-169)
Method in brief: as §1

T1 sequence (P01116 1-169 isoform P01116-2 G12R): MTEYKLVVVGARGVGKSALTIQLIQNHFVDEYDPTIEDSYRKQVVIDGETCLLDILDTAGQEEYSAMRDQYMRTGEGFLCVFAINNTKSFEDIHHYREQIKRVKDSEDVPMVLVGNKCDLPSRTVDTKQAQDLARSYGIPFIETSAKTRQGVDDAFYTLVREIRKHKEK
T4 sequence (P01116 1-169 isoform P01116-2): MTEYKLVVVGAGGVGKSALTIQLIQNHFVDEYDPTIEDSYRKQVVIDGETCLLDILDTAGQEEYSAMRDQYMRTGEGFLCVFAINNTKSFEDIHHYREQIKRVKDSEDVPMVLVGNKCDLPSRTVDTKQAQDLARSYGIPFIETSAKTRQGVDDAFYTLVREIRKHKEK
T3 sequence (P01116 1-169 isoform P01116-2 G12D): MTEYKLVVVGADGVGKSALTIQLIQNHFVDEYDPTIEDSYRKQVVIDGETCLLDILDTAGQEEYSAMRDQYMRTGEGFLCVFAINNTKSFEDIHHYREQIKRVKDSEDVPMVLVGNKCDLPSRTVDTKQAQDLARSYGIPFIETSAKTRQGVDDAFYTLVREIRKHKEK
T2 sequence (P01116 1-169 isoform P01116-2 G12V): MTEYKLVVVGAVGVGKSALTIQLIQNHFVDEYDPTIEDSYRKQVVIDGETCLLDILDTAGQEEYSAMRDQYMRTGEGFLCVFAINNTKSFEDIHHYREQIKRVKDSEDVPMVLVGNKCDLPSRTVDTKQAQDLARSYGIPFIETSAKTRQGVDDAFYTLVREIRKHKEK

| Compound | IC50 [1] | IC50 [2] | IC50 ([3]; GP2d) | IC50 [4] | IC50 [5] | IC50 [3] |
| --- | --- | --- | --- | --- | --- | --- |
| CN(c1nc(OC[C@@H]2CC3(CC3)CN2C)nc2c(F)c(-c3ccc(F)c4sc(N)c(C#N)c34)c(C(F)(F)F)cc12)C1CC(O)C1 (stereo partly shown) [Compound 41] | 100 to 1000 nM | 100 to 1000 nM | < 100 nM | 100 to 1000 nM | 100 to 1000 nM | – |
| CCN(C)c1nc(OC[C@@]23CCCN2C[C@H](F)C3)nc2c(F)c(-c3ccc(F)c4sc(N)c(C#N)c34)c(C(F)(F)F)cc12 [Compound 81, 2-amino-4-[4-[ethyl(methyl)amino]-8-fluoro-2-[[(2R,8S)-2-fluoro-1,2,3,5,6,7-hexahydropyrrolizin-8-yl]methoxy]-6-(trifluoromethyl)quinazolin-7-yl]-7-fluoro-benzothiophene-3-carbonitrile] | < 100 nM | 100 to 1000 nM | < 100 nM | < 100 nM | 100 to 1000 nM | – |
| C[C@H](O)C1CCN(c2nc(OC[C@@]34CCCN3C[C@H](F)C4)nc3c(F)c(-c4ccc(F)c5sc(N)c(C#N)c45)c(C(F)(F)F)cc23)CC1 [Compound 50] | 1000 to 10000 nM | 1000 to 10000 nM | 100 to 1000 nM | 100 to 1000 nM | 100 to 1000 nM | – |
| N#Cc1c(N)sc2c(F)ccc(-c3c(C(F)(F)F)cc4c(N5C6CCC5COC6)nc(OC[C@@]56CCCN5C[C@H](F)C6)nc4c3F)c12 [Compound 131] | 100 to 1000 nM | 100 to 1000 nM | < 100 nM | 100 to 1000 nM | 100 to 1000 nM | – |
| CN(c1nc(OC[C@@]23CCCN2C[C@H](F)C3)nc2c(F)c(-c3ccc(F)c4sc(N)c(C#N)c34)c(C(F)(F)F)cc12)[C@@H]1C[C@H](O)[C@@H]1CO [Compound 37] | < 100 nM | 100 to 1000 nM | < 100 nM | < 100 nM | < 100 nM | – |
| N#Cc1c(N)sc2c(F)ccc(-c3c(C(F)(F)F)cc4c(N5CC6CCC(C5)C6CO)nc(OC[C@@]56CCCN5C[C@H](F)C6)nc4c3F)c12 (stereo partly shown) [Compound 47] | 100 to 1000 nM | 100 to 1000 nM | < 100 nM | < 100 nM | 100 to 1000 nM | – |
| CN1CCC[C@H]1COc1nc(N(C)[C@H]2C[C@@H](O)C2)c2cc(C(F)(F)F)c(-c3ccc(F)c4sc(N)c(C#N)c34)c(F)c2n1 [Compound 35] | 100 to 1000 nM | 100 to 1000 nM | < 100 nM | 100 to 1000 nM | 100 to 1000 nM | – |
| CN(c1nc(OCC23CCCN2CCC3)nc2c(F)c(-c3ccc(F)c4sc(N)c(C#N)c34)c(C(F)(F)F)cc12)[C@H]1C[C@@H](O)C1 [Compound 25] | < 100 nM | < 100 nM | < 100 nM | < 100 nM | < 100 nM | – |
| CN(C[C@@H](O)CO)c1nc(OC[C@@]23CCCN2C[C@H](F)C3)nc2c(F)c(-c3ccc(F)c4sc(N)c(C#N)c34)c(C(F)(F)F)cc12 [Compound 78] | 100 to 1000 nM | 100 to 1000 nM | < 100 nM | < 100 nM | 100 to 1000 nM | – |
| C[C@@H](CO)N(C)c1nc(OC[C@@]23CCCN2C[C@H](F)C3)nc2c(F)c(-c3ccc(F)c4sc(N)c(C#N)c34)c(C(F)(F)F)cc12 [Compound 77] | 100 to 1000 nM | 100 to 1000 nM | < 100 nM | < 100 nM | 100 to 1000 nM | – |
| N#Cc1c(N)sc2c(F)ccc(-c3c(C(F)(F)F)cc4c(N5CCC(CO)CC5)nc(OC[C@@]56CCCN5C[C@H](F)C6)nc4c3F)c12 [Compound 44, 2-amino-7-fluoro-4-(8-fluoro-2-(((2R,7aS)-2-fluorotetrahydro-1H-pyrrolizin-7a(5H)-yl)methoxy)-4-(4-(hydroxymethyl)piperidin-1-yl)-6-(trifluoromethyl)quinazolin-7-yl)benzo[b]thiophene-3-carbonitrile] | 100 to 1000 nM | 100 to 1000 nM | < 100 nM | 100 to 1000 nM | 100 to 1000 nM | – |
| CN(c1nc(OC[C@@]23CCCN2C[C@H](F)C3)nc2c(F)c(-c3ccc(F)c4sc(N)c(C#N)c34)c(C(F)(F)F)cc12)C1CCC(O)CC1 (stereo partly shown) [Compound 66] | 100 to 1000 nM | 100 to 1000 nM | – | 100 to 1000 nM | 100 to 1000 nM | 100 to 1000 nM |

The remaining lines, values ahead:

| IC50 [1] | IC50 [2] | IC50 ([3]; GP2d) | IC50 [4] | IC50 [5] | IC50 [3] | Compound |
| --- | --- | --- | --- | --- | --- | --- |
| 100 to 1000 nM | 100 to 1000 nM | < 100 nM | < 100 nM | 100 to 1000 nM | – | CCN(CCO)c1nc(OCC23CCCN2CCC3)nc2c(F)c(-c3ccc(F)c4sc(N)c(C#N)c34)c(C(F)(F)F)cc12 [Compound 176] |
| 100 to 1000 nM | 100 to 1000 nM | < 100 nM | 100 to 1000 nM | 100 to 1000 nM | – | N#Cc1c(N)sc2c(F)ccc(-c3c(C(F)(F)F)cc4c(N5CC(CO)C5)nc(OC[C@@]56CCCN5C[C@H](F)C6)nc4c3F)c12 [Compound 129] |
| 100 to 1000 nM | 1000 to 10000 nM | < 100 nM | 100 to 1000 nM | 1000 to 10000 nM | – | CN(c1nc(OC[C@@]23CCCN2C[C@H](F)C3)nc2c(F)c(-c3ccc(F)c4sc(N)c(C#N)c34)c(C(F)(F)F)cc12)[C@H]1CCC[C@@H]1CO [Compound 86] |
| 100 to 1000 nM | 100 to 1000 nM | < 100 nM | 100 to 1000 nM | 100 to 1000 nM | – | CCN(c1nc(OC[C@@]23CCCN2C[C@H](F)C3)nc2c(F)c(-c3ccc(F)c4sc(N)c(C#N)c34)c(C(F)(F)F)cc12)[C@@H]1CCN(C(C)=O)[C@@H]1COC [Compound 118] |
| 100 to 1000 nM | 100 to 1000 nM | < 100 nM | 100 to 1000 nM | 100 to 1000 nM | – | CCC(=O)N1CC[C@@H](N(C)c2nc(OC[C@@]34CCCN3C[C@H](F)C4)nc3c(F)c(-c4ccc(F)c5sc(N)c(C#N)c45)c(C(F)(F)F)cc23)[C@H]1C [Compound 116] |
| 100 to 1000 nM | 100 to 1000 nM | < 100 nM | 100 to 1000 nM | 100 to 1000 nM | – | CCC(=O)N1CC[C@@H](N(C)c2nc(OC[C@@]34CCCN3C[C@H](F)C4)nc3c(F)c(-c4ccc(F)c5sc(N)c(C#N)c45)c(C(F)(F)F)cc23)C1 [Compound 113] |
| 100 to 1000 nM | 100 to 1000 nM | < 100 nM | 100 to 1000 nM | 100 to 1000 nM | – | N#Cc1c(N)sc2c(F)ccc(-c3c(C(F)(F)F)cc4c(N(CCO)C5CC5)nc(OC[C@@]56CCCN5C[C@H](F)C6)nc4c3F)c12 [Compound 171] |
| 100 to 1000 nM | 1000 to 10000 nM | < 100 nM | 100 to 1000 nM | 100 to 1000 nM | – | C[C@H]1CN(c2nc(OC[C@@]34CCCN3C[C@H](F)C4)nc3c(F)c(-c4ccc(F)c5sc(N)c(C#N)c45)c(C(F)(F)F)cc23)CCO1 [Compound 142] |
| 100 to 1000 nM | 1000 to 10000 nM | < 100 nM | 100 to 1000 nM | 100 to 1000 nM | – | N#Cc1c(N)sc2c(F)ccc(-c3c(C(F)(F)F)cc4c(N5CCC(F)(F)C5)nc(OC[C@@]56CCCN5C[C@H](F)C6)nc4c3F)c12 [Compound 159] |
| 100 to 1000 nM | 100 to 1000 nM | 100 to 1000 nM | 100 to 1000 nM | 100 to 1000 nM | – | N#Cc1c(N)sc2c(F)ccc(-c3c(C(F)(F)F)cc4c(N5CCN(CCO)C(=O)C5)nc(OC[C@@]56CCCN5C[C@H](F)C6)nc4c3F)c12 [Compound 121] |
| 100 to 1000 nM | 100 to 1000 nM | < 100 nM | 100 to 1000 nM | 100 to 1000 nM | – | CCCN(C)c1nc(OC[C@@]23CCCN2C[C@H](F)C3)nc2c(F)c(-c3ccc(F)c4sc(N)c(C#N)c34)c(C(F)(F)F)cc12 [Compound 120] |
